Experimental data as given in US5714494A, “Xanthines in the 7th position with a benzyl acetic acid moiety” (Bayer Aktiengesellschaft, priority 1995, dated 1998).

Key:
[1] = tested on: ApoB-100-associated lipoproteins; assay: Inhibition of the release of ApoB-100-associated lipoproteins from HepG2 cells (immunoassay for human LDL); type: cell-based; details: light absorption 450 nm vs solvent control
Procedure: The test for detecting inhibition of the release of ApoB-100-associated lipoproteins from liver cells was carried out in vitro using cultured liver cells, preferably using cells of the human line HepG2. These cells are grown under standard conditions in medium for the culture of eucaryotic cells, preferably in RPMI 1640 using 10% foetal calf serum. HepG2 cells synthesize and secrete into the culture supernatant ApoB-100-associated lipoprotein particles which in principle are synthesized in a similar manner to the VLDL and LDL particles which are to be found in the plasma.
These particles can be detected using an immunoassay for human LDL. This immunoassay is carried out using antibodies which have been induced in the rabbit against human LDL under standard conditions. The anti-LDL antibodies (rabbit anti-LDL-Ab) were purified by affinity chromatography on an immunosorbent using human LDL. These purified rabbit anti-LDL Ab are adsorbed on the surface of plastic. Expediently, this adsorption is carried out on the plastic surface of microtitre plates having 96 wells, preferably on MaxiSorp plates. If ApoB-100-associated particles are present in the supernatant of Hep-G2 cells, these can bind to the insolubilized rabbit anti-LDL Ab, and an immune complex is formed which is bound to the plastic surface. Unbound proteins are removed by washing. The immune complex located on the plastic surface is detected using monoclonal antibodies which have been induced against human LDL according to standard conditions and purified. These antibodies were conjugated with the enzyme peroxidase. Peroxidase converts the colourless substrate TMB into a coloured product in the presence of H2 O2. After acidification of the reaction mixture using H2 SO4, the specific light absorption at 450 mn is determined, which is a measure of the amount of ApoB-100-associated particles which have been secreted into the culture supernatant by the HepG2 cells.
The IC50 value indicates at which substance concentration the light absorption is inhibited by 50% in comparison with the control (solvent control without substance).

[2] = tested on: intestinal triglyceride absorption; assay: Inhibition of intestinal triglyceride absorption in vivo (rats); design: species or system male Wistar rats; details: po; for Absorption ED50 or % inhibition: 2 h
Procedure: The substances which are to be investigated for their triglyceride absorption-inhibiting action in vivo are administered orally to male Wistar rats having a body weight of between 170 and 230 g. For this purpose, the animals are divided into groups of 6 animals 18 hours before administration of the substance and the feed is then withdrawn from them. Drinking water is available to the animals ad libitum. The animals of the control groups receive an aqueous tragacanth suspension or a tragacanth suspension which contains olive oil. The tragacanth-olive oil suspension is prepared using an Ultra-Turrax. The substances to be investigated are suspended directly before substance administration in a corresponding tragacanth-olive oil suspension, also using an Ultra-Turrax.
Before stomach tube application, blood is taken from each rat by puncture of the retroorbital venous plexus to determine the basal serum triglyceride content. The tragacanth suspension, the tragacanth-olive oil suspensions without substance (control animals) and the substances suspended in a corresponding tragacanth-olive oil suspension are then administered to the fasting animals using a stomach tube. Further taking of blood for the determination of the postprandial serum triglyceride rise is carried out, as a rule, 1,2 and 3 hours after stomach tube application.
The blood samples are centrifuged and, after recovering the serum, the triglycerides are determined photometrically using an EPOS analyzer 5060 (Eppendorf Geratebau, Netheler & Hinz GmbH, Hamburg). The triglycerides are determined by fully enzymatic means using a commercially available UV test.
The postprandial serum triglyceride increase is determined by subtraction of the triglyceride preliminary value of each animal from its corresponding postprandial triglyceride concentrations (1,2 and 3 hours after administration).
The differences (in mmol/l) at each time 1, 2 and 3 hours) are averaged in the groups, and the average values of the serum triglyceride increase (ΔTG) of the substance-treated animals are compared with the animals which only received the tragacanth-oil suspension.
Likewise, the serum triglyceride course of the control animals which received only tragacanth is calculated. The substance effect at each time (1, 2 or 3 hours) is determined as follows and given in Δ% of the oil-loaded control. [formula]
Effect of 10 mg of test substance/kg of body weight p.o. on the triglyceride increase (Δ%) 2 h after a triglyceride loading in the serum of fasting rats. The serum triglyceride increase of fat-loaded control animals based on the serum triglyceride level of tragacanth control animals corresponds to 100%. n=6 animals per group.
Statistical assessment was carried out using student3 s t test after prior checking of the variances for homogeneity.

VLDL secretion = assay: Inhibition of VLDL secretion in vivo (rat) (Triton rat); details: for inhibition in vivo at 3 mg/kg: (n.s.) for 112, 114, 117, 154, 175, 176, 227, read-out: Triton rat % TG inhibition (p.o.) 2 h after substance
Procedure: The action of the test substances on VLDL secretion is also investigated in the rat. To do this, 500 mg/kg of body weight (2.5 ml/kg) of Triton WR-1339, dissolved in physiological saline solution, are administered to rats intravenously in the tail vein. Triton WR-1339 inhibits lipoprotein lipase and thus leads through inhibition of VLDL catabolism to an increase in the triglyceride and cholesterol level. These increases can be used as a measure of the VLDL secretion rate.
Blood is taken from the animals before and one and two hours after administration of the detergent by puncture of the retroorbital venous plexus. The blood is incubated at room temperature for 1 h for clotting and the serum is recovered by centrifugation at 10,000 g for 20 s. The triglycerides are then determined photometrically at a wavelength of 540 nm by means of a commercially available coupled enzyme test (Sigma Diagnostics®, No. 339). Measurement is carried out with the aid of a likewise coupled enzyme test (Boehringer Mannheim®, No. 1442350) at a wavelength of 546 nm. Samples with triglyceride or cholesterol concentrations which exceed the measuring range of the methods are diluted with physiological saline solution. The respective serum concentrations are determined with the aid of standard series measured in parallel. Test substances are administered orally, intravenously or subcutaneously immediately after the Triton injection.

[3] = Homo sapiens, HepG2, HepG2 cells
[4] = Rattus norvegicus, po, 2 h, 3 mg/kg p.o.

IC50 [1, 3]	Compound	Absorption ED50 or % inhibition [2]	further results
0.014 µM	Cn1c(=O)c2c(nc(Cc3cccc(Cl)c3)n2Cc2ccc(C(C(=O)N[C@@H](CO)c3ccccc3)C3CCCC3)cc2)n(C)c1=O (stereo partly drawn) [Example 191]	> 3 mg/kg	–
–	Cn1c(=O)c2c(nc(Cc3ccccc3)n2Cc2ccc(C(C(=O)N[C@@H](CO)c3ccccc3)C3CCCC3)cc2)n(C)c1=O (single isomer, unassigned) [Example 169]	2 mg/kg	IC50 ([1]; HepG2 cells): 0.003 µM; inhibition in vivo at 3 mg/kg (VLDL secretion; [4]): 28%; inhibition in vivo at 5 mg/kg (VLDL secretion; Rattus norvegicus, po, 2 h, 5 mg/kg p.o., read-out: Triton rat % TG inhibition (p.o.) 2 h after substance): 41%; inhibition in vivo at 10 mg/kg (VLDL secretion; Rattus norvegicus, po, 2 h, 10 mg/kg p.o., read-out: Triton rat % TG inhibition (p.o.) 2 h after substance): 59.4%
0.003 µM	Cn1c(=O)c2c(nc(-c3ccsc3)n2Cc2ccc(C(C(=O)N[C@@H](CO)c3ccccc3)C3CCCC3)cc2)n(C)c1=O (stereo partly drawn) [Example 154]	< 2 mg/kg	inhibition in vivo at 3 mg/kg (VLDL secretion; [4]): -4%
0.011 µM	COc1ccc(Cc2nc3c(c(=O)n(C)c(=O)n3C)n2Cc2ccc(C(C(=O)N[C@@H](CO)c3ccccc3)C3CCCC3)cc2)cc1 (stereo partly drawn) [Example 201]	> 3 mg/kg	–
0.043 µM	COc1ccccc1Cc1nc2c(c(=O)n(C)c(=O)n2C)n1Cc1ccc(C(C(=O)N[C@@H](CO)c2ccccc2)C2CCCC2)cc1 (stereo partly drawn) [Example 197]	3 mg/kg	–
0.064 µM	Cc1ccccc1Cc1nc2c(c(=O)n(C)c(=O)n2C)n1Cc1ccc(C(C(=O)N[C@@H](CO)c2ccccc2)C2CCCC2)cc1 (stereo partly drawn) [Example 178]	3 mg/kg	–
0.008 µM	Cn1c(=O)c2c(nc(CC3CCCCC3)n2Cc2ccc(C(C(=O)N[C@@H](CO)c3ccccc3)C3CCCC3)cc2)n(C)c1=O (stereo partly drawn) [Example 123]	–	ED50 ([2]; Rattus norvegicus, serum triglyceride increase 2 h after triglyceride loading, fasting rats, read-out: Absorption ED50 or % inhibition): 2 mg/kg
0.034 µM	Cn1c(=O)c2c(nc(-c3ccccn3)n2Cc2ccc(C(C(=O)N[C@@H](CO)c3ccccc3)C3CCCC3)cc2)n(C)c1=O (stereo partly drawn) [Example 151]	6 mg/kg	–
–	Cn1c(=O)c2c(nc(Cc3ccccc3)n2Cc2ccc(C(C(=O)N[C@@H](CO)c3ccccc3)C3CCCCCC3)cc2)n(C)c1=O (single isomer, unassigned) [Example 176]	–	IC50 ([1]; HepG2 cells): 0.019 µM; Triton rat % TG inhibition (p.o.) 2 h after substance (VLDL secretion; 3 mg/kg p.o., (n.s.) for 112, 114, 117, 154, 175, 176, 227): 6.2%
0.01 µM	Cn1c(=O)c2c(nc(-c3ccc(Cl)cc3)n2Cc2ccc(C(C(=O)N[C@@H](CO)c3ccccc3)C3CCCC3)cc2)n(C)c1=O (stereo partly drawn) [Example 140]	> 3 mg/kg	–
0.005 µM	Cc1ccsc1-c1nc2c(c(=O)n(C)c(=O)n2C)n1Cc1ccc(C(C(=O)N[C@@H](CO)c2ccccc2)C2CCCC2)cc1 (stereo partly drawn) [Example 160]	3 mg/kg	–
0.012 µM	Cc1ccc(Cc2nc3c(c(=O)n(C)c(=O)n3C)n2Cc2ccc(C(C(=O)N[C@@H](CO)c3ccccc3)C3CCCC3)cc2)cc1 (stereo partly drawn) [Example 182]	2 mg/kg	–
0.006 µM	COc1ccc(-c2nc3c(c(=O)n(C)c(=O)n3C)n2Cc2ccc(C(C(=O)N[C@@H](CO)c3ccccc3)C3CCCC3)cc2)cc1 (stereo partly drawn) [Example 146]	> 3 mg/kg	–
0.032 µM	Cn1c(=O)c2c(nc(Cc3ccccc3)n2Cc2ccc(C(C(=O)N[C@@H](CO)c3ccccc3)C3CCCCCC3)cc2)n(C)c1=O (single isomer, unassigned) [Example 175]	–	inhibition in vivo at 3 mg/kg (VLDL secretion; [4]): 9.8%
0.005 µM	Cn1c(=O)c2c(nc(Cc3ccccc3)n2Cc2ccc(C(C(=O)N[C@@H](CO)c3ccccc3)C3CCCCCC3)cc2)n(C)c1=O (stereo partly drawn) [Example 174]	< 2 mg/kg	–
0.009 µM	CN(C)c1ccc(-c2nc3c(c(=O)n(C)c(=O)n3C)n2Cc2ccc(C(C(=O)N[C@@H](CO)c3ccccc3)C3CCCC3)cc2)cc1 (stereo partly drawn) [Example 149]	> 3 mg/kg	–
0.005 µM	Cc1cccc(Cc2nc3c(c(=O)n(C)c(=O)n3C)n2Cc2ccc(C(C(=O)N[C@@H](CO)c3ccccc3)C3CCCC3)cc2)c1 (stereo partly drawn) [Example 179]	> 3 mg/kg	–
0.019 µM	Cn1c(=O)c2c(nc(C=Cc3ccccc3)n2Cc2ccc(C(C(=O)N[C@@H](CO)c3ccccc3)C3CCCC3)cc2)n(C)c1=O (stereo partly drawn) [Example 167]	> 2 mg/kg	–
0.011 µM	Cn1c(=O)c2c(nc(-c3ccc(C(F)(F)F)cc3)n2Cc2ccc(C(C(=O)N[C@@H](CO)c3ccccc3)C3CCCC3)cc2)n(C)c1=O (stereo partly drawn) [Example 143]	> 3 mg/kg	–
0.002 µM	Cn1c(=O)c2c(nc(Cc3ccccc3)n2Cc2ccc(C(C(=O)N[C@@H](CO)c3ccccc3)C3CCCCC3)cc2)n(C)c1=O (stereo partly drawn) [Example 171]	–	–
–	Cn1c(=O)c2c(nc(Br)n2Cc2ccc(C(C(=O)N[C@@H](CO)c3ccccc3)C3CCCC3)cc2)n(C)c1=O (single isomer, unassigned) [Example 118]	–	IC50 ([1]; HepG2 cells): 0.007 µM
0.403 µM	Cc1ccc(-c2nc3c(c(=O)n(C)c(=O)n3C)n2Cc2ccc(C(C(=O)N[C@@H](CO)c3ccccc3)C3CCCC3)cc2)c(C)c1 (stereo partly drawn) [Example 138]	–	–
0.005 µM	Cc1cccc(-c2nc3c(c(=O)n(C)c(=O)n3C)n2Cc2ccc(C(C(=O)N[C@@H](CO)c3ccccc3)C3CCCC3)cc2)c1 (stereo partly drawn) [Example 133]	2 mg/kg	–
–	Cn1c(=O)c2c(nc(Cc3ccccc3Cl)n2Cc2ccc(C(C(=O)N[C@@H](CO)c3ccccc3)C3CCCC3)cc2)n(C)c1=O (single isomer, unassigned) [Example 190]	–	IC50 ([1]; HepG2 cells): 0.086 µM
0.003 µM	CCc1nc2c(c(=O)n(CC)c(=O)n2CC)n1Cc1ccc(C(C(=O)N[C@@H](CO)c2ccccc2)C2CCCC2)cc1 (stereo partly drawn) [Example 215]	–	–
–	Cn1c(=O)c2c(nc(-c3cccs3)n2Cc2ccc(C(C(=O)N[C@@H](CO)c3ccccc3)C3CCCC3)cc2)n(C)c1=O (single isomer, unassigned) [Example 159]	–	IC50 ([1]; HepG2 cells): 0.025 µM
0.012 µM	Cn1c(=O)c2c(nc(-c3cc(Br)cs3)n2Cc2ccc(C(C(=O)N[C@@H](CO)c3ccccc3)C3CCCC3)cc2)n(C)c1=O (stereo partly drawn) [Example 164]	–	–
